Source: US10561639B2, “Composition comprising a TNFR agonist and at least one thioredoxin inhibitor for use in the treatment of carcinoma” (UNIVERSITY OF HUDDERSFIELD, priority 2013, dated 2020)

Tests used:
[1] = PX-12 alone; cited from earlier work
[2] = system: colorectal carcinoma cells (HCT116); test: Sensolyte caspase activity assay in colorectal carcinoma cells (HCT116); assay type: cell-based; settings: 24 hours, PX-12 3 μM, G28-5 10 ug/mL, FIG. 3
Procedure: Apoptosis was assessed on the basis of caspase activity detection after 24 hours of treatment using the Sensolyte (Anaspec) assay (Cambridge Biosciences). Results are expressed as relative fluorescence (relative caspase activity) in comparison to negative controls and are representative of two independent experiments in which six technical replicates were carried out for each condition.
Carcinoma cell lines EJ and HCT116 (obtained from the European Collection of Cell Cultures, ECACC) were maintained in a 50:50 (v/v) mixture of Dulbecco's Modified Eagle Medium (DMEM, Sigma) and Roswell Park Memorial Institute 1640 (RPMI, Sigma) (DR), supplemented with 5% Fetal calf serum (FCS, Biosera) and 1% (2 mM) L-Glutamine (Sigma). […] Cells were removed with a 10 mL suspension of DR 5% and counted in single cell suspension using an “improved Neubauer” haemocytometer (VWR).
EJ and HT116 cells were seeded into white 96-well plates (at […] and 6×10^3 cells per well, respectively) and left incubated overnight. […] Cells were then incubated for 48 hours before assessing cell death using the CytoTox-Glo™ cell death detection assay (according to the manufacturer's instructions) on a FLUOstar™ OPTIMA (BMG Labtech) plate reader. Alternatively, after 24 or 48 hours caspase activity was determined using the SensoLyte® Homogenous AFC Caspase-3/7 Assay Kit (Anaspec). […]

[3] = system: Bladder carcinoma cells (EJ); test: Cytotox-Glo apoptosis assay in bladder carcinoma cells (EJ); assay type: cell-based; settings: 48 hours, G28-5 10 ug/mL, PX-12 at minimally cytotoxic concentration, FIG. 1
Procedure: Referring firstly to FIG. 1 where comparative results are shown from Bladder carcinoma cells (EJ) treated with soluble CD40 agonist (agonistic antibody G28-5), the indicated concentration of Trx inhibitor (PX-12), or their combination and results compared to untreated (Control) cells. Apoptosis was assessed 48 hours later using the Cytotox-Glo assay (Promega). Raw data (relative luminescence units) are shown and results are representative of three independent experiments in which six technical replicates were carried out for each condition.
Apoptosis was assessed 48 hours later using the Cytotox-Glo assay (Promega). Results are expressed as relative luciferase in comparison to negative controls and are representative of four independent experiments in which six technical replicates were carried out for each condition.
Carcinoma cell lines EJ and HCT116 (obtained from the European Collection of Cell Cultures, ECACC) were maintained in a 50:50 (v/v) mixture of Dulbecco's Modified Eagle Medium (DMEM, Sigma) and Roswell Park Memorial Institute 1640 (RPMI, Sigma) (DR), supplemented with 5% Fetal calf serum (FCS, Biosera) and 1% (2 mM) L-Glutamine (Sigma). Cells were incubated at 37° C. in a humidified atmosphere of 5% CO2 in air. […] Cells were removed with a 10 mL suspension of DR 5% and counted in single cell suspension using an “improved Neubauer” haemocytometer (VWR). […]

[4] = system: colorectal carcinoma SW480 cells; test: Cytotox-Glo % cell death in colorectal carcinoma SW480 cells; assay type: cell-based; settings: 12 hours, BS-1 5 microg/mL, PX-12 4 microM, FIG. 8
Procedure: Apoptosis was assessed 12 hours later using the Cytotox-Glo assay (Promega). Results were obtained as relative luciferase activity in comparison to negative controls and subsequently percentage (%) cell death values were deduced for each condition according to the manufacturer's instructions. Results are representative of two independent experiments in which six technical replicates were carried out for each condition.

[5] = system: phospho-JNK and Bax in ASK-1 knock-out EJ cell derivatives ('S18'); test: Immunoblotting of phospho-JNK and Bax after mCD40L; assay type: cell-based; settings: cells with ASK-1 knockdown (S18), FIGS. 6a and 6b
Procedure: (§1) The cells were treated with mCD40L and apoptosis was assessed 48 hours later using the Cytotox-Glo assay (Promega) and by measuring levels of phospho-JNK and Bax using immune-blotting. The images from the blotting can be seen in FIGS. 6a and 6b.

[6] = system: ASK-1 protein knock-out EJ cell derivatives ('S18'); test: Cytotox-Glo apoptosis assay in ASK-1 knock-out EJ derivatives treated with mCD40L; assay type: cell-based; settings: S18 cells versus EJ cells, 48 hours, FIG. 5
Procedure: as §1

Row | Molecule | doses required for conventional PX-12 treatment to obtain cytotoxicity [1] | cytotoxicity / apoptosis by caspase activation (relative caspase activity) [2] | cytotoxicity / apoptosis (Cytotox-Glo, relative luminescence units) [3] | pro-apoptotic activity / cytotoxicity (% Cell Death) [4] | p-JNK and Bax induction [5] | apoptosis after mCD40L in ASK-1 knockdown cells (Cytotox Glo) [6]
1 | CCC(C)SSc1ncc[nH]1 (stereo not drawn) [PX-12, 2-[(1-Methylpropyl)dithio]-1H-imidazole] | 10 to 25 µg/mL | some cytotoxicity | little | some but not extensive cytotoxicity |  | 
2 | mCD40L: membrane CD40 ligand delivered by co-culture with growth-arrested third-party cells expressing mCD40L (protein, UniProt P29965 1-261, looked up, full-length expressed on growth-arrested feeder cells) MIETYNQTSPRSAATGLPISMKIFMYLLTVFLITQMIGSALFAVYLHRRLDKIEDERNLHEDFVFMKTIQRCNTGERSLSLLNCEEIKSQFEGFVKDIMLNKEETKKENSFEMQKGDQNPQIAAHVISEASSKTTSVLQWAEKGYYTMSNNLVTLENGKQLTVKRQGLYYIYAQVTFCSNREASSQAPFIASLCLKSPGRFERILLRAANTHSSAKPCGQQSIHLGGVFELQPGASVFVNVTDPSQVSHGTGFTSFGLLKL |  |  |  |  | lack of p-JNK and Bax induction | inhibition of apoptosis
